Results: patent US20250041624A1, “METHOD FOR ENHANCING ACTIVITY OF PHOTOSENSITIZER BY MAGNETIC FIELD” (PEKING UNIVERSITY, priority 2021, published 2025)
Several values for one entry are separate records, joined by “and”; a condition that tells them apart may be missing. Equal values may be shown once. Read-outs that look alike come from different tables or passages of the source.

Tested on: HeLa cells
Assay: CCK-8 cell viability of HeLa cells under light and magnetic field
Type: cell-based
Details: for CV(%) (cell viability): final concentration of photosensitizer 30 mol/L (so in the source), light 10 min; for mfe(CV)(%) =(CV0−CVB)/CV0×100%: photosensitizer 30 mol/L (so in the source); for IC50: white light 400-700 nm 5 mW·cm−2, 10 min, read-out: RB Half inhibitory concentration
Experimental: (1) Appropriate amounts of HeLa cells are added to DMEM medium (Corning, USA, high glycoform, with glucose concentration […] 4.5 g/L), and then appropriate amounts of 10 wt % fetal bovine serum (FBS), 1 wt % penicillin and streptomycin are added. Cells are cultured at 37° C. in humidified air with 5% (volume fraction) CO2 for 2 days.
The above Hela cells (2×10^3/well) are seeded in 96-well plates for 24 h without light. 100 μL medium and 100 μL aqueous solution of RB with concentrations of 80, 40, 20, 10, 5 μmol/L or 100 μL 0.01 mol/L PBS buffer (phosphate buffered saline) are added respectively, and treated for 24 h, thereafter the cells are washed 3 times with PBS buffer.
DMEM (comprising FBS) medium is added to the 96-well plates for 24 hours in the absence of light. An additional 10 μL of Cell Counting Kit-8 (CCK-8 kit) (Beyotime Biotechnology Co. Ltd.) and 90 μL of DMEM are added to each well, and the light and magnetic field strength are controlled for a subsequent incubation of 30 minutes. The absorbance at 450 nm is read using a microplate reader. Cell Viability (CV) of Hela cells is calculated using the following equation: […]
Where As is the absorbance of HeLa cells comprising photosensitizer (PS), Ac is the absorbance of Hela cells without PS and Ab is the absorbance of those without PS and HeLa cells.
The change rate of half inhibitory concentration, mfeP (Cell Viability (%)) is obtained as follows: mfeP=(IC50,0−IC50,B)/IC50,B×100%, where IC50,0 is half inhibitory concentration at magnetic field strength of 0 mT and IC50,B is half inhibitory concentration at magnetic field strength of B.
Under white light with lighting conditions of 400-700 nm, the power of 5 mW·cm^−2, test is carried out in a magnetic field with strengths of 0-800 mT, and the irradiation and the magnetic field perform for 10 min. The results of the test calculations for mfeP (Cell Viability (%)) at different concentrations of RB and each magnetic field strength are shown in FIG. 8. The RB half inhibitory concentration μmol/L at magnetic field strength of B calculated by logistic regression model fitting according to FIG. 8 are shown in Table 2 below.
In above experiment, with final concentration of photosensitizer of 30 mol/L, CV (%) and mfe (CV) (%) measured and calculated at each magnetic field strength are specifically shown in Table 3, where mfe(CV)=(CV0−CVB)/CV0×100%.

SMILES: O=C1OC2(c3cc(I)c(O)c(I)c3Oc3c2cc(I)c(O)c3I)c2c(Cl)c(Cl)c(Cl)c(Cl)c21 [RB, Rose Bengal]
- mfeP (Cell Viability(%), change rate of half inhibitory concentration) (MF 14 mT vs 0 mT): −21% and −21.5%
- mfeP (Cell Viability(%), change rate of half inhibitory concentration) (MF 40 mT vs 0 mT): 8.1%
- mfeP (Cell Viability(%), change rate of half inhibitory concentration) (MF 90 mT vs 0 mT): 13.3%
- mfeP (Cell Viability(%), change rate of half inhibitory concentration) (MF 150 mT vs 0 mT): 14.8%
- mfeP (Cell Viability(%), change rate of half inhibitory concentration) (MF 250 mT vs 0 mT): 22.4%
- mfeP (Cell Viability(%), change rate of half inhibitory concentration) (MF 575 mT vs 0 mT): 22.1%
- mfeP (Cell Viability(%), change rate of half inhibitory concentration) (MF 700 mT vs 0 mT): −11.1%
- mfeP (Cell Viability(%), change rate of half inhibitory concentration) (MF 800 mT vs 0 mT): −58%
- CV(%) (cell viability) (MF 0 mT): 71.1 ± 0.5%
- CV(%) (cell viability) (MF 14 mT): 89.8 ± 4.2%
- CV(%) (cell viability) (MF 150 mT): 72.5 ± 3.2%
- CV(%) (cell viability) (MF 250 mT): 59.9 ± 2.6%
- CV(%) (cell viability) (MF 400 mT): 42.3 ± 6.7%
- CV(%) (cell viability) (MF 575 mT): 74.1 ± 0.6%
- CV(%) (cell viability) (MF 700 mT): 78.3 ± 3.2%
- CV(%) (cell viability) (MF 800 mT): 83.0 ± 0.5%
- mfe(CV)(%) =(CV0−CVB)/CV0×100% (MF 0 mT): 0%
- mfe(CV)(%) =(CV0−CVB)/CV0×100% (MF 14 mT): −26.3%
- mfe(CV)(%) =(CV0−CVB)/CV0×100% (MF 150 mT): −1.97%
- mfe(CV)(%) =(CV0−CVB)/CV0×100% (MF 250 mT): 15.8%
- mfe(CV)(%) =(CV0−CVB)/CV0×100% (MF 400 mT): 40.5%
- mfe(CV)(%) =(CV0−CVB)/CV0×100% (MF 575 mT): −4.2%
- mfe(CV)(%) =(CV0−CVB)/CV0×100% (MF 700 mT): −10.13%
- mfe(CV)(%) =(CV0−CVB)/CV0×100% (MF 800 mT): −16.7%
- IC50 (MF 0 mT): 34.2 ± 1.7 µM
- IC50 (MF 14 mT): 41.6 ± 1.4 µM
- IC50 (MF 40 mT): 31.5 ± 1 µM
- IC50 (MF 90 mT): 29.7 ± 0.7 µM
- IC50 (MF 150 mT): 29.2 ± 0.6 µM
- IC50 (MF 250 mT): 26.6 ± 0.3 µM
- IC50 (MF 400 mT): 26.1 ± 0.8 µM
- IC50 (MF 575 mT): 26.7 ± 1.9 µM
- IC50 (MF 700 mT): 38 ± 1.1 µM
- IC50 (MF 800 mT): 54.1 ± 0.8 µM
